Reference: patent US9376662B2, “Increasing cell culture population doublings for long-term growth of finite life span human cell cultures” (The Regents of the University of California, priority 2006, dated 2016)
“Also recorded” adds a separate entry of the source.

What was measured:
Type in all cases: cell-based, human
pre-stasis HMEC [1] = test: Growth of pre-stasis HMEC on different substrates; conditions: compared with plastic
Method: Referring to FIG. 18, 184 HMEC, batch f, were grown in MM in primary culture and switched to M85 at passage 2. At passage 4 they were switched to M87 and grown on plastic (♦), laminin on plastic (▪), or laminin on LUMOX dishes (▴) (which allow the cells to grow on a gas-permeable substrate).
Referring to FIG. 19, pre-stasis 48RT HMEC were grown from primary culture in M85+oxytocin and switched at passage 6 to growth on laminin on plastic or plastic alone.

pre-stasis HMEC [2] = test: Long-term growth of pre-stasis HMEC: total population doublings (PD) prior to stasis; conditions: for total PD with oxytocin added to M85: oxytocin added at primary culture or passage 2
Method: See FIG. 7, where the increased PD shown by HMEC from specimen 184, batch ⋄, is also seen in HMEC obtained from the 2 other donors tested, 48R, batch T, and 240L, batch B. Specimen 240L was grown only in M85 with oxytocin from primary organoids. Specimen 48R was grown in M85±oxytocin from primary organoids. For comparison, growth of specimen 184 in MM is shown. 184 HMEC batch ⋄ and 48RT+oxytocin were grown in 20% O2. The other cultures were grown in 3% O2.
HMEC placed in a medium containing ˜1% serum and conditioned media (MM) have active growth for ˜15-30 PD; cells grown in a serum-free medium (MCDB170) show active proliferation for ˜10-20 PD; HMEC grown in MM in a low oxygen environment (3% vs. 20%) grow for an additional ˜4 PD.
(§1) Short-term growth assays are done by measuring 24 hr labeling index (LI) at midconfluence and p16 expression and cell numbers at confluence in different media (as shown in FIG. 13). […] Other assays will transfer growing populations a few passages before stasis to media lacking specific components and assay LI and p16 (as shown in FIG. 12).

p16 protein = test: Immunohistochemical staining for p16 protein and labeling index (LI) in pre-stasis HMEC; conditions: 184 HMEC in M85, 48 days post-seeding, 20% O2
Source text: Note the gradually increasing expression of p16 with passage and the gradual reduction in the growing population. Note also the reciprocity between positive labeling of the small cell population with BrdU and the positive staining of the larger cell population for p16 expression.
Referring now to FIGS. 3-5, which show pre-stasis growth of 184 HMEC in different media and immunohistochemical staining for p16 protein. 184 HMEC were started in M85 and subcultured at passage 2 into M85 with cholera toxin with or without oxytocin, in 20% O2. […] Note the large cells staining for p16 with the small cells still negative for p16 but positive for LI (indicative of DNA synthesis).
as §1

| Molecule | proliferation as the cells approach stasis (pre-stasis HMEC [1]) | growth conditions at the lower oxytocin concentration (pre-stasis HMEC [2]; 0.1 nM compared with 1.0 nM oxytocin) | PD potential in the presence of oxytocin (pre-stasis HMEC [2]; 184 HMEC in M85 with or without oxytocin) | increase in population doublings by oxytocin (pre-stasis HMEC [2]; M85 base medium, about 45 PD to about 60 PD) [%] | total PD with oxytocin added to M85 (pre-stasis HMEC [2]; M85 base medium) | total PD with oxytocin added to M85 (pre-stasis HMEC [2]; M85 base medium, listed as Oxytocin) | p16 expression with oxytocin compared to without (p16 protein) |
| --- | --- | --- | --- | --- | --- | --- | --- |
| laminin | more proliferation occurred | – | – | – | – | – | – |
| CC[C@H](C)[C@@H]1NC(=O)[C@H](Cc2ccc(O)cc2)NC(=O)[C@@H](N)CSSC[C@@H](C(=O)N2CCC[C@H]2C(=O)N[C@@H](CC(C)C)C(=O)NCC(N)=O)NC(=O)[C@H](CC(N)=O)NC(=O)[C@H](CCC(N)=O)NC1=O [oxytocin] | – | provided better growth conditions than 1.0 nM | greatly increased PD potential; also recorded: significant increase in total PD | 33 | around 60 PD | up to 60 PD | lower level of p16 expression |
